{"source": "paper PMC3902015", "about": "(Journal of Alzheimer's disease : JAD, 2012)", "key": {"MRP1": {"test_system": "MRP1", "test": "Western blot of MRP1 in brain homogenate", "type": "in vivo, C57BL/6 wild-type mice", "conditions": "treated mice vs control"}, "LRP1 [1]": {"test_system": "LRP1", "test": "RT-PCR of LRP1 mRNA in bEnd3 cells", "type": "cell-based, mouse", "conditions": "50 µM, 72 h, vs control"}, "LRP1 [2]": {"test_system": "LRP1", "test": "Western blot of LRP1 protein in bEnd3 cells after drug treatment", "conditions": "50 µM, 72 h, vs control (DMSO)"}, "RAGE": {"test_system": "RAGE", "test": "Western blot of RAGE in isolated brain microvessels", "type": "in vivo, C57BL/6 wild-type mice", "conditions": "treated mice vs control"}, "LRP1 [3]": {"test_system": "LRP1", "test": "Immunofluorescence staining of LRP1 in isolated brain microvessels", "parameters": "species or system C57BL/6 wild-type mice", "conditions": "mouse, in vivo"}, "P-gp [4]": {"test_system": "P-gp", "test": "Immunofluorescence staining of P-gp in isolated brain microvessels", "parameters": "species or system C57BL/6 wild-type mice", "conditions": "mouse, in vivo"}, "[5]": {"conditions": "cited from earlier work"}, "[6]": {"test": "Drug concentration in plasma and brain homogenate", "type": "in vivo, C57BL/6 wild-type male mice", "conditions": "for concentration at 3 h: brain homogenate"}, "[7]": {"test": "Body weight during in vivo treatment", "parameters": "species or system C57BL/6 wild-type male mice", "conditions": "caffeine 40 mg/kg ip once daily, treatment limited to 2 weeks"}, "cognitive decline": {"test_system": "cognitive decline", "conditions": "mild to moderate AD patients, 3-month course of 300 mg/day; cited from earlier work"}, "MDR1": {"test_system": "MDR1", "conditions": "bEnd3 cells, 50 µM, 72 h, vs control"}, "[8]": {"conditions": "after administration of 6.4 mg/kg dose; cited from earlier work"}, "P-gp [9]": {"test_system": "P-gp", "conditions": "bEnd3 cells, 50 µM, 72 h, vs control (DMSO)"}, "P-gp [10]": {"target": "P-gp (Mus musculus, UniProt P21447)", "test": "BEI% of 125I-Aβ40 with P-gp inhibition by intracerebral valspodar", "type": "in vivo, C57BL/6 mice", "conditions": "for BEI% of 125I-Aβ40 after valspodar pretreatment: valspodar 24 ng/0.5 µl"}, "LRP1 [11]": {"target": "LRP1 (Mus musculus, UniProt Q91ZX7)", "sequence (Q91ZX7 20-4545)": "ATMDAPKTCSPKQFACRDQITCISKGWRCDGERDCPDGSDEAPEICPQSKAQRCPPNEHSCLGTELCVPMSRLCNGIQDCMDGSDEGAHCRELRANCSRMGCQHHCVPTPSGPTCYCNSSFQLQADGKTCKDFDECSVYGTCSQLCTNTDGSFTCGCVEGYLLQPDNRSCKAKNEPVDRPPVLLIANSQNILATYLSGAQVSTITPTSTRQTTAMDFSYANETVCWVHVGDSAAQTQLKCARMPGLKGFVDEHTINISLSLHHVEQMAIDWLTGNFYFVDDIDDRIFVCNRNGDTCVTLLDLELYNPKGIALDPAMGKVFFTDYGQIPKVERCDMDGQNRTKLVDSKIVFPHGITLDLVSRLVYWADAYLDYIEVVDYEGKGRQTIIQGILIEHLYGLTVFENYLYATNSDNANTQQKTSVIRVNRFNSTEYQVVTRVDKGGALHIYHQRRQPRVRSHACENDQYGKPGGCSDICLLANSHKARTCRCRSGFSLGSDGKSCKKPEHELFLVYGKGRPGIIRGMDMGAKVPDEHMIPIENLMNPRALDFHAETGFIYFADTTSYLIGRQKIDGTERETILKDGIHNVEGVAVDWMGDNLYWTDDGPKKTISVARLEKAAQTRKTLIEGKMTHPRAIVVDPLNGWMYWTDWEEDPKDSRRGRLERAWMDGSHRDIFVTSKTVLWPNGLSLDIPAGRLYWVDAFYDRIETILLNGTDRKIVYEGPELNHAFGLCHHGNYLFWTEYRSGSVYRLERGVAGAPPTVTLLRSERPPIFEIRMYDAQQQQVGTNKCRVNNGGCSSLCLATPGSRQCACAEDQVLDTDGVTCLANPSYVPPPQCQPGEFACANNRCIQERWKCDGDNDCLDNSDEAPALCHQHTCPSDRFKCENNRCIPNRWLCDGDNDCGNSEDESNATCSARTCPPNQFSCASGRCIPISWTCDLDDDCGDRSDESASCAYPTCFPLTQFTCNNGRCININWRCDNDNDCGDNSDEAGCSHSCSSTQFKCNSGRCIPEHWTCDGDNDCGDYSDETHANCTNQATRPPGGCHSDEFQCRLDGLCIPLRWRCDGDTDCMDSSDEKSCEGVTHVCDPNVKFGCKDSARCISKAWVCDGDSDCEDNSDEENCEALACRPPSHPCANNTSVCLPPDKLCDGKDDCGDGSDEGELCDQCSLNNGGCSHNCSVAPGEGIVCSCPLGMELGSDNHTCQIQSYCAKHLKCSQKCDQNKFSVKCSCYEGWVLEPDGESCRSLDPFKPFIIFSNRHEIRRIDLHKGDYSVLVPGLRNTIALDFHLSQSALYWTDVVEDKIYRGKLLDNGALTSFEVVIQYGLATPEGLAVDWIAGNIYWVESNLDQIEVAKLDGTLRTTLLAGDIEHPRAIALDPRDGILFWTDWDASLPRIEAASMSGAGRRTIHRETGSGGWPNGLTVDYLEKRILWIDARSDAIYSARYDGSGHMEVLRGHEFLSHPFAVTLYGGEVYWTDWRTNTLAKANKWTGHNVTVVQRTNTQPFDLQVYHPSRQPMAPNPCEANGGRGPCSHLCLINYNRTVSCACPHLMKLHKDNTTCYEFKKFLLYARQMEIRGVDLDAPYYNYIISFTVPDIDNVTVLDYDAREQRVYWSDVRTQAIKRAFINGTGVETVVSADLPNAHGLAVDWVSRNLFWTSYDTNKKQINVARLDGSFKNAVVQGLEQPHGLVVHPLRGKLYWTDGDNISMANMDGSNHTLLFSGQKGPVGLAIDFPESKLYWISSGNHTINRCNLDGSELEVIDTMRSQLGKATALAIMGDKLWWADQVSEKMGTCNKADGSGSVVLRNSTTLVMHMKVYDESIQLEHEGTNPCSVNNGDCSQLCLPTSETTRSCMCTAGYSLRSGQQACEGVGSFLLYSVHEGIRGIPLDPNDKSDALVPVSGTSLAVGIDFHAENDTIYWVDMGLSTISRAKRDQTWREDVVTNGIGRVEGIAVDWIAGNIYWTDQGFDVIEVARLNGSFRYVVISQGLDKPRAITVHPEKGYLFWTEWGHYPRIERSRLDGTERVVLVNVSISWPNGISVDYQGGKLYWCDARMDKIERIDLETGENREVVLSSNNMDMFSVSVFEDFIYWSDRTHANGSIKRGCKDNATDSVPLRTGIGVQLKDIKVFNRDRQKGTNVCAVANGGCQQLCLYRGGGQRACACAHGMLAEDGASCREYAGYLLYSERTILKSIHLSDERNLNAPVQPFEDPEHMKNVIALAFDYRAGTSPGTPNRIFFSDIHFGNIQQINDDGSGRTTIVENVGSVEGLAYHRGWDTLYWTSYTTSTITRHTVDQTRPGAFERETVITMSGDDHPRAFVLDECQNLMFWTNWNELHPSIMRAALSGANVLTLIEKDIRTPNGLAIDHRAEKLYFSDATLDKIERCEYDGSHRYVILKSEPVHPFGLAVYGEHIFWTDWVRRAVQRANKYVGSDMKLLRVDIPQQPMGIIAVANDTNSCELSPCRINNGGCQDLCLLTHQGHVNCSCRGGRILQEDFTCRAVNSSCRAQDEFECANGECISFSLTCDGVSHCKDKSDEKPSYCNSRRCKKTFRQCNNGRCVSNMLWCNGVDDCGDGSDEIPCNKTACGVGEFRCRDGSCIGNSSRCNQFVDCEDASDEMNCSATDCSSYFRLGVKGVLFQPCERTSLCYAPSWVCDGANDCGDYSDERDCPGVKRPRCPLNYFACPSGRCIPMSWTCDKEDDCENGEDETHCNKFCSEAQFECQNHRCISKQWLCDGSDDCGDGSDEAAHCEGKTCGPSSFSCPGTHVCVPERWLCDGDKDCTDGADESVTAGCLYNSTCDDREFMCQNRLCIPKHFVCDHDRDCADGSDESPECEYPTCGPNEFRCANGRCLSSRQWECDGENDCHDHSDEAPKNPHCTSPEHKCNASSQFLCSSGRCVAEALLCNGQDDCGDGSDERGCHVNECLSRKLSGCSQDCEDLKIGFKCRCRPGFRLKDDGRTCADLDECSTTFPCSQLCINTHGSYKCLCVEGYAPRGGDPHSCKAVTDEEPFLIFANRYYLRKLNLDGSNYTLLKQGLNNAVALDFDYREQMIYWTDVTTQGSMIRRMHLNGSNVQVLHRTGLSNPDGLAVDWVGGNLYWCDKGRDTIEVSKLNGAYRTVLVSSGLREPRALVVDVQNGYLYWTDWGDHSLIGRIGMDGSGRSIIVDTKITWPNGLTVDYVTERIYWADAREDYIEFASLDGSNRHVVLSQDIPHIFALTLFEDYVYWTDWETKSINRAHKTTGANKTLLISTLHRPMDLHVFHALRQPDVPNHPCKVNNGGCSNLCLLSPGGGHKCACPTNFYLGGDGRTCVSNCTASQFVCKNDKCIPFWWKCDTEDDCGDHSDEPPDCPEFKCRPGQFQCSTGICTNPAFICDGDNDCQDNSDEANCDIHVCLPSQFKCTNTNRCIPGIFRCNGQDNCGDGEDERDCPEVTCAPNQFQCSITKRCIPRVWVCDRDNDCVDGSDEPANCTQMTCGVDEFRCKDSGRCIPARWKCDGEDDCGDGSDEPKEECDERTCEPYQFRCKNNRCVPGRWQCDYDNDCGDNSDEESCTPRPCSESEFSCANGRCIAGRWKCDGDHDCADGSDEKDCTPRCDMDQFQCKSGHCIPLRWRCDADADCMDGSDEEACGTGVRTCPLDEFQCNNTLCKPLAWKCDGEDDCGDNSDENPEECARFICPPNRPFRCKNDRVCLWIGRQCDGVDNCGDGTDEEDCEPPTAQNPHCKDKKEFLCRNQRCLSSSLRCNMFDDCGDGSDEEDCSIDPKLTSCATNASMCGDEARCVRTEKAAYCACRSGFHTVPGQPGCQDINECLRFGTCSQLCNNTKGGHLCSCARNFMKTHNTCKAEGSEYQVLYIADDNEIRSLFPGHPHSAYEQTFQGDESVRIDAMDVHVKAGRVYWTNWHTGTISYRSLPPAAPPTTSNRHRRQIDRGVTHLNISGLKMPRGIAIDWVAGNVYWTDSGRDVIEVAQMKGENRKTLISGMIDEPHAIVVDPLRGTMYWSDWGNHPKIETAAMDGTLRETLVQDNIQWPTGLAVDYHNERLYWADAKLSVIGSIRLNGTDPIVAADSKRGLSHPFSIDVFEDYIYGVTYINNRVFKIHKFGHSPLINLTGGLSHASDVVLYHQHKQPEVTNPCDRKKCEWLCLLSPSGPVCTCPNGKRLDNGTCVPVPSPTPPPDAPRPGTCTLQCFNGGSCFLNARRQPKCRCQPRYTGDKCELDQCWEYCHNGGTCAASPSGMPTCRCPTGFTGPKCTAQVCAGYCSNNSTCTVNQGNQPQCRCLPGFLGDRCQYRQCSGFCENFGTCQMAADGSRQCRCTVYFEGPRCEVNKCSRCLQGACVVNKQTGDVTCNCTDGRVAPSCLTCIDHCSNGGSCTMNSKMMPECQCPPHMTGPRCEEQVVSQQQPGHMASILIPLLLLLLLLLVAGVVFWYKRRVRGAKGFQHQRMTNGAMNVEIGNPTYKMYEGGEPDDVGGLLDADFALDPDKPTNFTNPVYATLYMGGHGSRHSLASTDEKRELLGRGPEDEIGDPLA", "test": "BEI% of 125I-Aβ40 with LRP1 inhibition by intracerebral RAP", "type": "in vivo, C57BL/6 mice", "conditions": "for BEI% of 125I-Aβ40 after RAP pretreatment: RAP 19.5 ng/0.5 µl"}}, "note": "“Also recorded” adds a separate entry of the source.", "data": [{"compound": "Cn1c(=O)c2c(ncn2C)n(C)c1=O", "note": "[Caffeine]", "values": [{"measurement": "effect on brain homogenate's MRP1 expression (western blot)", "setting": "MRP1", "result": "did not alter; also recorded: Insignificant differences"}, {"measurement": "increase in mRNA level of LRP1 (RT-PCR)", "setting": "LRP1 [1]", "result": "did not show any effect"}, {"measurement": "increase in LRP1 level (densitometric analysis of western blot)", "setting": "LRP1 [2]", "result": "but not caffeine"}, {"measurement": "effect on microvessels' RAGE expression (western blot)", "setting": "RAGE", "result": "did not alter; also recorded: Insignificant differences"}, {"measurement": "increase in LRP1 expression in brain microvessels (immunofluorescence)", "setting": "LRP1 [3]", "result": 1.2, "unit": "fold"}, {"measurement": "increase in P-gp expression in brain microvessels (immunofluorescence)", "setting": "P-gp [4]", "result": 2.3, "unit": "fold"}, {"measurement": "plasma protein binding", "setting": "[5]", "result": "10–37%"}, {"measurement": "Drug concentration Plasma", "setting": "[6]; 3 h after last ip dose (rifampicin 20 mg/kg, caffeine 40 mg/kg daily), n = 12", "result": "20000 ± 5400", "unit": "ng/mL"}, {"measurement": "Kp at 3 h", "setting": "[6]; male, C57BL/6, mouse, brain homogenate / plasma, ip", "result": 0.5}, {"measurement": "concentration at 3 h", "setting": "[6]; male, C57BL/6, mouse, ip", "result": "11800 ± 3600", "unit": "ng/mL"}, {"measurement": "body weight observation during treatment", "setting": "[7]", "result": "weight loss"}]}, {"compound": "CO[C@H]1/C=C/O[C@@]2(C)Oc3c(C)c(O)c4c(O)c(c(/C=N/N5CCN(C)CC5)c(O)c4c3C2=O)NC(=O)/C(C)=C\\C=C\\[C@H](C)[C@H](O)[C@@H](C)[C@@H](O)[C@@H](C)[C@H](OC(C)=O)[C@@H]1C", "note": "[Rifampicin]", "values": [{"measurement": "effect on rate of cognitive decline", "setting": "cognitive decline", "result": "attenuated the rate of cognitive decline"}, {"measurement": "increase in mRNA of MDR1 (RT-PCR)", "setting": "MDR1", "result": 1.5, "unit": "fold"}, {"measurement": "increase in mRNA level of LRP1 (RT-PCR)", "setting": "LRP1 [1]", "result": 1.4, "unit": "fold"}, {"measurement": "free (unbound) plasma level in humans", "setting": "[8]", "result": 1.08, "unit": "µg/mL"}, {"measurement": "increase in LRP1 level (densitometric analysis of western blot)", "setting": "LRP1 [2]", "result": 1.2, "unit": "fold"}, {"measurement": "concentration at 3 h", "setting": "[6]; male, C57BL/6, mouse, ip", "result": "150 ± 80", "unit": "ng/mL"}, {"measurement": "increase in P-gp level (densitometric analysis of western blot)", "setting": "P-gp [9]", "result": 1.45, "unit": "fold"}]}, {"compound": "C/C=C/C[C@@H](C)C(=O)[C@H]1C(=O)N[C@@H](C(C)C)C(=O)N(C)CC(=O)N(C)[C@@H](CC(C)C)C(=O)N[C@@H](C(C)C)C(=O)N(C)[C@@H](CC(C)C)C(=O)N[C@@H](C)C(=O)N[C@H](C)C(=O)N(C)[C@@H](CC(C)C)C(=O)N(C)[C@@H](CC(C)C)C(=O)N(C)[C@@H](C(C)C)C(=O)N1C", "note": "[Valspodar]", "values": [{"measurement": "reduction in BEI% values by valspodar", "setting": "P-gp [10]; caffeine-treated mice", "result": "~32", "unit": "%"}, {"measurement": "BEI% of 125I-Aβ40 after valspodar pretreatment", "setting": "P-gp [10]; caffeine-treated mice, without valspodar 80.4±[…]", "result": "48.1 ±2.3", "unit": "%"}, {"measurement": "reduction in BEI% values by valspodar", "setting": "P-gp [10]; rifampicin-treated mice", "result": "~25", "unit": "%"}, {"measurement": "BEI% of 125I-Aβ40 after valspodar pretreatment", "setting": "P-gp [10]; rifampicin-treated mice, without valspodar 82.4±[…]", "result": "57.5± 1.1", "unit": "%"}]}, {"compound": "RAP: human receptor associated protein, a specific LRP1 inhibitor", "values": [{"measurement": "BEI% of 125I-Aβ40 after RAP pretreatment", "setting": "LRP1 [11]; caffeine-treated mice, without RAP 80.4 ±[…]", "result": "76.9 ±2.5", "unit": "%"}, {"measurement": "reduction in BEI% values by RAP", "setting": "LRP1 [11]; control mice", "result": "about 33%"}, {"measurement": "reduction in BEI% values by RAP", "setting": "LRP1 [11]; rifampicin-treated mice", "result": "~13", "unit": "%"}, {"measurement": "BEI% of 125I-Aβ40 after RAP pretreatment", "setting": "LRP1 [11]; rifampicin-treated mice, without RAP 82.4±[…]", "result": "69.7 ±3.3", "unit": "%"}]}]}
